Data reported in patent US4501734A, “Promotion of absorption of drugs administered through the alimentary system” (priority 1981, dated 1985).

Legend:
[1] = Ampicillin blood level after administration with galenical extract by stomach probe (Experimental method B); assay type: in vivo; conditions: rat
Experimental: Rats weighing 200 to 230 g under anesthesia with ether were intubated with polyethylene tube (PE-10) at the femoral artery with ligation. The other end of PE-10 was passed subcutaneously to be led to the cervicodorsal part, at which it was drawn out of the skin and fixed with capping. After restoration of the vulnus at the operated portion (about 24 hours), each rat was provided for the experiment.
The test microorganism used was Bacillus subtilis, and the assay was performed by the paper disc method according to The Japan Antibiotic Drug Standards.

[2] = Ampicillin blood level after suppository with saponin A, B or C (suppository tests); assay type: in vivo; conditions: rat
Experimental: The effectiveness of the saponins A, B and C when they were formulated into suppositories was tested in a method similar to the above Experimental method A.
Thus, rats weighing 180 to 220 g were anesthetized with 30 mg/kg of pentobarbital sodium and fixed by supination on a water bed made of a metal through which water regulated at a constant temperature of 39° C. was circulated. A suppository in a proportion of 1 g/kg of body weight of the rat was inserted through the anus and pushed by a glass bar until it reached the connecting point of the pubes.
The suppositories tested had the following compositions:
Saponin A, B or C: 0.5-2 mg/kg-rat, and
Vehicle*: remainder for giving 1 mg of suppository/kg-rat.
*Witepsol® produced by Dynamit Novel A.G.
Thus, the assay was performed by the paper disc method according to The Japan Antibiotic Drug Standards using Bacillus subtilis as the test microorganism.

[3] = Ampicillin blood level after injection with galenical extract or isolated saponin into rat duodenal loop (Experimental method A); conditions: in vivo
Experimental: Rats weighing 180 to 220 g were anesthetized with 30 mg/kg of pentobarbital sodium and fixed by supination on a water bed made of a metal through which water regulated at a constant temperature of 39° C. was circulated. A duodenal loop of 10 cm length was prepared in a conventional manner with the point 1 cm under the pyloric part of the stomach as the starting point. […] The rats were bled from jugular veins 10, 20, 40, 60, 90, 120, 180 and 240 minutes after injection and activity concentration in the blood in each case was measured according to biological assay.
That is, according to The Japan Antibiotic Drug Standards, using Bacillus subtilis as test microorganism, cultivation assay was performed by the paper disc method at 37° C. for 15 to 20 hours.
The composition of the solution had the following composition:
Galenical extract: 2 mg/ml-20 mg/ml
(§1) Experimental method A was repeated except that saponins A, B and C were respectively used in a concentration of 5 mg/liter in place of the galenical extract in a solution to be administered.

duodenum mucosa = assay: Observation of the duodenum employed in the experiment for mucosa damage; assay type: in vivo; conditions: rat duodenum employed in the experiment
Experimental: as §1
Examples according to the above experimental method are shown in the following Examples 6, 7 and 8. […] This may be ascribed to low acute toxicity of the drug absorption promoter of the present invention, as can readily be understood from the fact that the galenicals used in the present invention have been widely accepted as herb medicines or the like.

CC1(C)S[C@@H]2[C@H](NC(=O)[C@H](N)c3ccccc3)C(=O)N2[C@H]1C(=O)O [ampicillin sodium]
Concentration in Blood, 10 min. (- Control) ([1]; in vivo, po, 25 mg/kg, 10 min): 0.3 μg titer/ml | Concentration in Blood, 20 min. (- Control) ([1]; in vivo, po, 25 mg/kg, 20 min): 0.6 μg titer/ml | Concentration in Blood, 40 min. (- Control) ([1]; in vivo, po, 25 mg/kg, 40 min): 1.3 μg titer/ml | Concentration in Blood, 60 min. (- Control) ([1]; in vivo, po, 25 mg/kg, 1 h): 0.5 μg titer/ml | concentration at 10 min ([1]; in vivo, po, 25 mg/kg, Concentration in Blood, 10 min. (- Control)): 400 ng/mL | concentration at 20 min ([1]; in vivo, po, 25 mg/kg, Concentration in Blood, 20 min. (- Control)): 800 ng/mL | concentration at 40 min ([1]; in vivo, po, 25 mg/kg, Concentration in Blood, 40 min. (- Control)): 1200 ng/mL | concentration at 1 h ([1]; in vivo, po, 25 mg/kg, Concentration in Blood, 60 min. (- Control)): 800 ng/mL | concentration at […] ([1]; in vivo, po, 25 mg/kg, Concentration in Blood, 90 min. (- Control)): 300 ng/mL | Concentration in Blood, 90 min. (- Control) ([1]; stomach probe, ampicillin sodium without extract (Control), 90 min, tr.: trace): tr. | Concentration in Blood, 120 min. (- Control) ([1]; stomach probe, ampicillin sodium without extract (Control), 120 min, tr.: trace): tr. | Concentration in Blood, 180 min. (- Control) ([1]; stomach probe, ampicillin sodium without extract (Control), 180 min, tr.: trace): tr. | Concentration in Blood, 240 min. (- Control) ([1]; stomach probe, ampicillin sodium without extract (Control), 240 min, tr.: trace): tr. | concentration at 5 min ([2]; in vivo, 50 mg/kg): 3120 ± 1660 ng/mL | concentration at 10 min ([2]; in vivo, 50 mg/kg): 3980 ± 1890 ng/mL | concentration at 35 min ([2]; in vivo, 50 mg/kg): 1910 ± 890 ng/mL | concentration at 1 h ([2]; in vivo, 50 mg/kg): 930 ± 540 ng/mL | Concentration in Blood, 100 min. ([2]; suppository, ampicillin sodium 50 mg/kg, 100 min (Table 8A, upper part)): trace | Concentration in Blood, 20 min. (Control) ([3]; 20 min): 0.89 ± 0.07 μg titer/ml | Concentration in Blood, 40 min. (Control) ([3]; 40 min): 1.1 μg titer/ml | Concentration in Blood, 240 min. (Control) ([3]; 4 h): 0.5 μg titer/ml | concentration at 10 min ([3]; Concentration in Blood, 10 min. (Control)): 600 ng/mL | concentration at 40 min ([3]; Concentration in Blood, 40 min. (Control)): 1100 ng/mL | concentration at 1 h ([3]; Concentration in Blood, 60 min. (Control)): 1200 ng/mL | concentration at 3 h ([3]; Concentration in Blood, 180 min. (Control)): 500 ng/mL | concentration at 4 h ([3]; Concentration in Blood, 240 min. (Control)): 500 ng/mL

C[C@@H]1O[C@@H](O[C@H]2[C@H](O[C@H]3CC[C@@]4(C)[C@@H](CC[C@]5(C)[C@@H]4CC=C4[C@@H]6CC(C)(C)CC[C@]6(C(=O)O)CC[C@]45C)[C@]3(C)CO)OC[C@H](O)[C@@H]2O)[C@H](O)[C@H](O[C@@H]2OC[C@H](O)[C@H](O)[C@H]2O)[C@H]1O [Saponin A, 3-O-[α-L-arabinopyranosyl-(1→3)-α-L-rhamnopyranosyl-(1→2) -α-L-arabinopyranosyl]-hederagenin]
damage of mucosa or abnormality such as hemorrhagic spot of the duodenum (duodenum mucosa): no damage of mucosa (e.g. mucosa ablation) or abnormality such as hemorrhagic spot

C[C@@H]1O[C@@H](O[C@H]2[C@H](O[C@H]3CC[C@@]4(C)[C@@H](CC[C@]5(C)[C@@H]4CC=C4[C@@H]6CC(C)(C)CC[C@]6(C(=O)O)CC[C@]45C)[C@]3(C)CO)OC[C@H](O)[C@@H]2O)[C@H](O)[C@H](O[C@@H]2OC[C@@H](O)[C@H](O)[C@H]2O)[C@H]1O [Saponin B, 3-O-[β-D-xylopyranosyl-(1→3)-α-L-rhamnopyranosyl-(1→2)-α-L-arabinopyranosyl]-hederagenin]
damage of mucosa or abnormality such as hemorrhagic spot of the duodenum (duodenum mucosa): no damage of mucosa (e.g. mucosa ablation) or abnormality such as hemorrhagic spot

C[C@@H]1O[C@@H](O[C@H]2[C@H](O[C@H]3CC[C@@]4(C)[C@@H](CC[C@]5(C)[C@@H]4CC=C4[C@@H]6CC(C)(C)CC[C@]6(C(=O)O)CC[C@]45C)[C@]3(C)CO)OC[C@H](O)[C@@H]2O)[C@H](O)[C@H](O[C@@H]2O[C@@H](CO)[C@H](O)[C@H]2O)[C@H]1O [Saponin C, 3-O-[α-L-arabinofuranosyl-(1→3)-α-L-rhamnopyranosyl-(1→2)-α-L-arabinopyranosyl]-hederagenin]
damage of mucosa or abnormality such as hemorrhagic spot of the duodenum (duodenum mucosa): no damage of mucosa (e.g. mucosa ablation) or abnormality such as hemorrhagic spot
